Reference: the SangsterLogP compilation

Conditions: for logD: pH 2.0

Row | logP | logD | SMILES
1 | 1.58 |  | CC(=O)N(C)C(=O)COC(=O)c1ccccc1
2 | 1.24 |  | CC(=O)NC(=O)COC(=O)c1ccccc1
3 | 2.26 |  | CC(C)(C)NC(=O)COC(=O)c1ccccc1
4 | 2.99 |  | CCCCCCN(C)C(=O)COC(=O)c1ccccc1
5 | 0.99 |  | CNC(=O)COC(=O)c1ccccc1
6 | 1.73 |  | CC(C)NC(=O)COC(=O)c1ccccc1
7 | 1.28 |  | CCNC(=O)COC(=O)c1ccccc1
8 | 2.3 |  | CCN(CC)C(=O)C(C)OC(=O)c1ccccc1 (stereo unspecified)
9 | 1.88 |  | CCCNC(=O)COC(=O)c1ccccc1
10 | 2.81 |  | CCCCCCNC(=O)COC(=O)c1ccccc1
11 | 0.25 |  | O=C(COC(=O)c1ccccc1)NC(CO)(CO)CO
12 | 1.95 |  | O=C(OCC(=O)N1CCCCC1)c1ccccc1
13 | 0.42 |  | CC(NC(=O)COC(=O)c1ccccc1)C(N)=O (stereo unspecified)
14 |  | 0.67 | CN(CC(=O)O)C(=O)COC(=O)c1ccccc1
15 | 2.62 |  | CCC1CCCCN1C(=O)COC(=O)c1ccccc1 (stereo unspecified)
16 | 0.9 |  | O=C(OCC(=O)N1CCOCC1)c1ccccc1
17 | 2.34 |  | C=CCN(CC=C)C(=O)COC(=O)c1ccccc1
18 |  | 0.79 | O=C(OCC(=O)N1CCC1C(=O)O)c1ccccc1 (stereo unspecified)
19 | 1.28 |  | COCCN(CCOC)C(=O)COC(=O)c1ccccc1
20 | 0.63 |  | O=C(OCC(=O)N1CCC(O)CC1)c1ccccc1
21 | 6.53 |  | CCCCCCN(CCCCCC)C(=O)COC(=O)c1ccccc1
22 | 0.66 |  | CC(O)CN(CC(C)O)C(=O)COC(=O)c1ccccc1 (stereo unspecified)
23 | 1.24 |  | CC(=O)N(C)CCOC(=O)c1ccccc1
24 | 2.36 |  | CCCCNC(=O)COC(=O)c1ccccc1
25 | 0.2 |  | NC(=O)C1CCCN1C(=O)COC(=O)c1ccccc1 (stereo unspecified)
26 | 0.69 |  | NC(=O)COC(=O)c1ccccc1
